Laboratory results as given in patent publication US20060035889A1, “Treatment for methamphetamine addiction and reduction of methamphetamine use using serotonin antagonists” (priority 2004, published 2006).

What was measured:
5-HT2C = biological target: T1, 5-HT2C (Homo sapiens, UniProt P28335); conditions: read-out: receptor affinity (Ki) 5-HT2C; cited from earlier work
T1 sequence (P28335 33-458): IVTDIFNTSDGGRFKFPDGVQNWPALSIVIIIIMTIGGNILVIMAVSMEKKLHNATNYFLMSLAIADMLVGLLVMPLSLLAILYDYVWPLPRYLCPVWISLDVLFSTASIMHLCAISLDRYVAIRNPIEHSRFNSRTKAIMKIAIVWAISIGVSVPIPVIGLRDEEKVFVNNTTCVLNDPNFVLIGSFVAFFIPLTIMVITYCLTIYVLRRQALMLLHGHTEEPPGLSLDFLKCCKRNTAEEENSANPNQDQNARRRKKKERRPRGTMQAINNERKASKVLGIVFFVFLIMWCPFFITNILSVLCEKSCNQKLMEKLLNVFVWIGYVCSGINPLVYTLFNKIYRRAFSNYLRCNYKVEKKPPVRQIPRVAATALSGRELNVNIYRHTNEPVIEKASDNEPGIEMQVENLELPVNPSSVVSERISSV

5-HT3 = biological target: T2, 5-HT3 (Homo sapiens, UniProt P46098); conditions: read-out: receptor affinity (Ki) 5-HT3; cited from earlier work
T2 sequence (P46098 24-478): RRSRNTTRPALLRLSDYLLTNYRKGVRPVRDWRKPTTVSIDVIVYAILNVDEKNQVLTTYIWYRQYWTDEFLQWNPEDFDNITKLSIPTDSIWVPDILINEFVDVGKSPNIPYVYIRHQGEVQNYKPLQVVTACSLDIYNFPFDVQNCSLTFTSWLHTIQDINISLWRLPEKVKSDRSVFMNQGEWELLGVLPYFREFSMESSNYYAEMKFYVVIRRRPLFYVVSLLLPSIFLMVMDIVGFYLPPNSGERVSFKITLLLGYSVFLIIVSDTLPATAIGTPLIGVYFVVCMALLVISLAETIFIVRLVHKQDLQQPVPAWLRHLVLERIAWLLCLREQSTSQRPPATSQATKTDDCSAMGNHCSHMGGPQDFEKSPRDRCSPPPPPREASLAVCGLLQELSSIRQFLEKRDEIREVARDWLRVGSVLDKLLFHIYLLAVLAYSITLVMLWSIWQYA

METH-conditioned rats = experiment: METH-induced conditioned place preference (CPP) with simultaneous motor sensitization; format: in vivo, rat
Excerpt: The CPP box (Accuscan, Columbus, Ohio) consists of three Plexiglas compartments, each with distinct visual and tactile cues (on one side, patterned floor with object attached and horizontally striped wall; on the opposite side, smooth floor with no object and vertically striped walls; center—uniformly white floor and walls). The center compartment can be separated from the left and right compartments by removable guillotine doors. Motor activity in three dimensional space, and time spent, in each compartment is detected by two sets of photobeams set at different heights from the floor. Drug conditioning is performed by administering METH to the rat while it is in one compartment, and on the alternating day, saline is administered while the rat is confined to the opposite compartment. Confinement was achieved by blocking access to other compartments using the guillotine door. The center compartment is not seen by the rat during conditioning, and all conditioning sessions last for 45 min.
The inventors have determined that the number of METH-pairings, and the dose of METH, dictate the strength of the drug-environment association (i.e., the magnitude of salience attribution). The test for CPP is determined in a METH-free state (i.e., at least 48 hr after that last METH pairing), at which time the rats are placed in the center compartment and allowed free access to all compartments for 30 min, and the time spent in each compartment is the index of preference. The inventors have determined that the number of METH-pairings, and the dose of METH, dictate the strength of the drug-environment association (i.e., the magnitude of salience attribution) and thus the amount of time spent in the compartment previously paired with METH (FIG. 7), as well as persistence of this effect (i.e., how long it lasts; FIG. 8A). METH-induced motor sensitization can be assessed in several ways, including assessing the capacity of the rat to express an enhanced motor response to an acute METH challenge (FIGS. 9 & 10A).
To efficiently apply this approach to testing of 5-HT2A/2C antagonists, we determined that single pairing protocols of the CPP paradigm can be used to predict efficacy outcomes of 5-HT2A/2C antagonists in long-term tests on these drugs evaluating their capacity to nullify the persistent enhanced salience induced by METH. […] Thus, these protocols should help predict the capacity of novel therapeutic targets to halt a common problem of drug relapse, i.e., the ability of re-exposure to drugs like METH to immediately reinstate their abuse.

D2 = D2 (Homo sapiens, UniProt P14416); conditions: read-out: receptor affinity (Ki) D2; cited from earlier work
D2, sequence (P14416 whole entry): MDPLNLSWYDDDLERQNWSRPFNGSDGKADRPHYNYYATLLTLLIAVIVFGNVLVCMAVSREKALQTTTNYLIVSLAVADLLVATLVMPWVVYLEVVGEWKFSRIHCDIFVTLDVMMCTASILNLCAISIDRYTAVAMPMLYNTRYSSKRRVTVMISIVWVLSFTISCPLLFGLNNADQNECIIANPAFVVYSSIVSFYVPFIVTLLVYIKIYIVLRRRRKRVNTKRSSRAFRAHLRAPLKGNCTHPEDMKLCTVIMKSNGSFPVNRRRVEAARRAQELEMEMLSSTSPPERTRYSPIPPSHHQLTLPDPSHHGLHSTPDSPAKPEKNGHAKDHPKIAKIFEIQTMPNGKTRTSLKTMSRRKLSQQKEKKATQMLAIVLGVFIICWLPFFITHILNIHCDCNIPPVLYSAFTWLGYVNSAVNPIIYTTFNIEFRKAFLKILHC

**Q.** For CN1CCN2c3ncccc3Cc3ccccc3[C@@H]2C1 (racemic) [mirtazapine, 1,2,3,4,10,14b-hexahydro-2-methyl-pyrazino[2,1-a]pyrido[2,3-c]benzazepine], which Ki (5-HT2C) is on record?
**A.** 0.012 µM

**Q.** And the Ki (5-HT3)?
**A.** 0.008 µM

**Q.** And the “preference to the place previously paired with METH (CPP expression)” value (METH-conditioned rats; 3 pairings 1 mg/kg ip METH, ten once-daily 5 mg/kg ip mirtazapine during withdrawal, day 20 (FIG. 8B))?
**A.** completely reverse

**Q.** And the “associated motor sensitization (number of rears)” value (METH-conditioned rats; mirtazapine during METH withdrawal, METH challenge day 22 (FIG. 10B))?
**A.** completely reverse

**Q.** What about the “ability of subsequent METH pairings to induce CPP (reinstatement)” value (METH-conditioned rats; repeated mirtazapine during withdrawal, day 25 (FIG. 12)) of the same compound?
**A.** renders ineffective

**Q.** And the “CPP expression after single pairing of 1.0 mg/kg METH” value (METH-conditioned rats; single home cage injection 0.5, 1.0 or 5.0 mg/kg mirtazapine 24 h before test (FIG. 11))?
**A.** reversal of METH-induced CPP

**Q.** And the Ki (D2)?
**A.** > 1 µM
